Source: patent US20090047246A1, “NOVEL INHIBITORS OF HEPATITIS C VIRUS REPLICATION” (InterMune, Inc., priority 2007, published 2009)

Target: T1, HCV NS3 helicase (Hepatitis C virus genotype 1b, UniProt P26663)
T1 construct: full-length NS3 (1-631), purified at Array BioPharma
Experiment: HCV Helicase Prompt FRET Assay (Example A)
Format: biochemical
Settings: HCV NS3 helicase; tables do not say whether Example A or Example B assay; read-out: IC50 Activity
How it was run: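 Initial unwinding rates, monitored as FAM fluorescence gain (ex 485, em 535) over ~30 min at room temperature, gave IC50 via 4- or 5-parameter logistic fits. Reactions: 50 nM quenched duplex, 250 nM capture strand, 300 μM ATP, 5–6 nM NS3 1-631 after 5 min compound preincubation, MOPS pH 7.0 buffer, 2% DMSO.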

T1 sequence (P26663 1027-1657): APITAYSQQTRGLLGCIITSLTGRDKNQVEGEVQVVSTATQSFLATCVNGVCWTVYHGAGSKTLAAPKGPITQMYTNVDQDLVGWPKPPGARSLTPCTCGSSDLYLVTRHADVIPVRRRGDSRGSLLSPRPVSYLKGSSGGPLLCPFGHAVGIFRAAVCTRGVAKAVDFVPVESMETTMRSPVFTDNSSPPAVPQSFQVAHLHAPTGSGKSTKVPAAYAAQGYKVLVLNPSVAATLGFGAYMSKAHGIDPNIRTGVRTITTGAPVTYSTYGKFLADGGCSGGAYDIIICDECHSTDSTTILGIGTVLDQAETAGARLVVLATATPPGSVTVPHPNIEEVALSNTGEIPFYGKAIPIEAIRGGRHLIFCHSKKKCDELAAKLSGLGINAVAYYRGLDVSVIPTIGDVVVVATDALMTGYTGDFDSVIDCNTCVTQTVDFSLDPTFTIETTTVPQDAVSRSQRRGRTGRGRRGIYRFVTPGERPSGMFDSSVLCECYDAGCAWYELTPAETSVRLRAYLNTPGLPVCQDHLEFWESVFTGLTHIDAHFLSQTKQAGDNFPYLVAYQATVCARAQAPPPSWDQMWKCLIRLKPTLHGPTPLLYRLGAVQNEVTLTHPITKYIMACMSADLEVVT

| IC50 | SMILES |
| --- | --- |
| < 10 µM | CC(C)c1ccc(Cn2c(C(=O)Nc3cccc(S(C)(=O)=O)c3)c(CC(=O)O)c3ccccc32)cc1 [Example 460] |
| < 10 µM | CC(C)c1ccc(Cn2c(C(=O)Nc3ccc(S(C)(=O)=O)cc3)c(CC(=O)O)c3ccccc32)cc1 [Example 461] |
| < 10 µM | CC(C)c1ccc(Cn2c(C(=O)Nc3cccc(NS(C)(=O)=O)c3)c(CC(=O)O)c3ccccc32)cc1 [Example 462] |
| 10 to 50 µM | CC(C)c1ccc(Cn2c(C(=O)Nc3cccnc3)c(CC(=O)O)c3ccccc32)cc1 [Example 463] |
| > 50 µM | O=C(O)c1cccc2c1c1ccccc1n2Cc1ccccc1 [Example 465] |
| < 10 µM | O=C(O)Cc1cn(Cc2cccc(Oc3ccc(F)cc3)c2)c2ccccc12 [Example 474] |
| < 10 µM | O=C(O)Cc1cn(Cc2cccc(Oc3ccccc3Cl)c2)c2ccccc12 [Example 475] |
| < 10 µM | O=C(O)Cc1cn(Cc2cccc(Oc3cccc(Cl)c3)c2)c2ccccc12 [Example 476] |
| < 10 µM | O=C(O)Cc1cn(Cc2cccc(Oc3ccc(Cl)cc3)c2)c2ccccc12 [Example 477] |
| < 10 µM | COc1ccc(Oc2cccc(Cn3cc(CC(=O)O)c4ccccc43)c2)cc1 [Example 480] |
| < 10 µM | O=C(O)Cc1cn(Cc2cccc(Oc3ccc(Cl)c(Cl)c3)c2)c2ccccc12 [Example 486] |
| 10 to 50 µM | COc1ccc(Oc2cccc(Cn3cc(CC(=O)O)c4ccccc43)c2)c(OC)c1 [Example 489] |
| 10 to 50 µM | COc1ccc(OC)c(Oc2cccc(Cn3cc(CC(=O)O)c4ccccc43)c2)c1 [Example 490] |
| < 10 µM | O=C(O)Cc1cn(Cc2ccc(Oc3ccccc3F)cc2)c2ccccc12 [Example 493] |
| < 10 µM | O=C(O)Cc1cn(Cc2ccc(Oc3ccc(F)cc3)cc2)c2ccccc12 [Example 495] |
| < 10 µM | O=C(O)Cc1cn(Cc2ccc(Oc3ccccc3Cl)cc2)c2ccccc12 [Example 496] |
| < 10 µM | O=C(O)Cc1cn(Cc2ccc(Oc3cccc(Cl)c3)cc2)c2ccccc12 [Example 497] |
| < 10 µM | O=C(O)Cc1cn(Cc2ccc(Oc3ccc(Cl)cc3)cc2)c2ccccc12 [Example 498] |
| 10 to 50 µM | COc1cccc(Oc2ccc(Cn3cc(CC(=O)O)c4ccccc43)cc2)c1 [Example 499] |
| < 10 µM | COc1ccccc1Oc1ccc(Cn2cc(CC(=O)O)c3ccccc32)cc1 [Example 500] |
| < 10 µM | COc1ccc(Oc2ccc(Cn3cc(CC(=O)O)c4ccccc43)cc2)cc1 [Example 501] |
| < 10 µM | O=C(O)Cc1cn(Cc2ccc(Oc3ccccc3C(F)(F)F)cc2)c2ccccc12 [Example 502] |
| < 10 µM | O=C(O)Cc1cn(Cc2ccc(Oc3cccc(C(F)(F)F)c3)cc2)c2ccccc12 [Example 503] |

| IC50 | SMILES |
| --- | --- |
| < 10 µM | O=C(O)Cc1cn(Cc2ccc(Oc3ccc(C(F)(F)F)cc3)cc2)c2ccccc12 [Example 504] |
| < 10 µM | O=C(O)Cc1cn(Cc2ccc(Oc3ccc(F)c(F)c3)cc2)c2ccccc12 [Example 505] |
| < 10 µM | O=C(O)Cc1cn(Cc2ccc(Oc3cc(F)cc(F)c3)cc2)c2ccccc12 [Example 506] |
| < 10 µM | O=C(O)Cc1cn(Cc2ccc(Oc3ccc(Cl)c(Cl)c3)cc2)c2ccccc12 [Example 507] |
| < 10 µM | O=C(O)Cc1cn(Cc2ccc(Oc3cc(Cl)cc(Cl)c3)cc2)c2ccccc12 [Example 508] |
| < 10 µM | COc1cccc(Oc2ccc(Cn3cc(CC(=O)O)c4ccccc43)cc2)c1OC [Example 509] |
| < 10 µM | COc1ccc(OC)c(Oc2ccc(Cn3cc(CC(=O)O)c4ccccc43)cc2)c1 [Example 510] |
| < 10 µM | COc1ccc(Oc2ccc(Cn3cc(CC(=O)O)c4ccccc43)cc2)cc1OC [Example 511] |
| < 10 µM | O=C(O)Cc1cn(Cc2ccc(Oc3cccc(F)c3)cc2)c2ccccc12 [Example 518] |
| < 10 µM | CN(c1ccc(F)cc1)c1cccc(Cn2cc(CC(=O)O)c3ccccc32)c1 [Example 522] |
| < 10 µM | CN(c1cccc(Cn2cc(CC(=O)O)c3ccccc32)c1)c1ccccc1Cl [Example 523] |
| < 10 µM | CN(c1cccc(Cl)c1)c1cccc(Cn2cc(CC(=O)O)c3ccccc32)c1 [Example 524] |
| < 10 µM | CN(c1ccc(Cl)cc1)c1cccc(Cn2cc(CC(=O)O)c3ccccc32)c1 [Example 525] |
| < 10 µM | COc1cccc(N(C)c2cccc(Cn3cc(CC(=O)O)c4ccccc43)c2)c1 [Example 527] |
| < 10 µM | COc1ccc(N(C)c2cccc(Cn3cc(CC(=O)O)c4ccccc43)c2)cc1 [Example 528] |
| < 10 µM | CN(c1cccc(Cn2cc(CC(=O)O)c3ccccc32)c1)c1cccc(Cl)c1Cl [Example 537] |
| < 10 µM | CN(c1cccc(Cn2cc(CC(=O)O)c3ccccc32)c1)c1ccc(Cl)cc1Cl [Example 538] |
| < 10 µM | CN(c1cccc(Cn2cc(CC(=O)O)c3ccccc32)c1)c1cc(Cl)ccc1Cl [Example 539] |
| < 10 µM | CN(c1cccc(Cn2cc(CC(=O)O)c3ccccc32)c1)c1c(Cl)cccc1Cl [Example 540] |
| < 10 µM | CN(c1cccc(Cn2cc(CC(=O)O)c3ccccc32)c1)c1ccc(Cl)c(Cl)c1 [Example 541] |
| < 10 µM | COc1ccc(N(C)c2cccc(Cn3cc(CC(=O)O)c4ccccc43)c2)c(OC)c1 [Example 542] |
| < 10 µM | COc1ccc(OC)c(N(C)c2cccc(Cn3cc(CC(=O)O)c4ccccc43)c2)c1 [Example 543] |
| < 10 µM | COc1ccc(N(C)c2cccc(Cn3cc(CC(=O)O)c4ccccc43)c2)cc1OC [Example 544] |

The remaining lines, values behind:

| SMILES | IC50 |
| --- | --- |
| O=C(O)c1cccc2[nH]c3ccccc3c12 [Example 467] | > 50 µM |
| Cc1cc([N+](=O)[O-])ccc1-n1c2ccccc2c2c(C(=O)O)cccc21 [Example 470] | > 50 µM |
| Cc1cc([N+](=O)[O-])ccc1-n1c2ccc(Br)cc2c2c(C(=O)O)cccc21 [Example 471] | 10 to 50 µM |
| O=C(O)Cc1cn(Cc2cccc(Oc3ccccc3F)c2)c2ccccc12 [Example 472] | < 10 µM |
| O=C(O)Cc1cn(Cc2cccc(Oc3cccc(F)c3)c2)c2ccccc12 [Example 473] | < 10 µM |
| COc1ccccc1Oc1cccc(Cn2cc(CC(=O)O)c3ccccc32)c1 [Example 478] | 10 to 50 µM |
| COc1cccc(Oc2cccc(Cn3cc(CC(=O)O)c4ccccc43)c2)c1 [Example 479] | 10 to 50 µM |
| O=C(O)Cc1cn(Cc2cccc(Oc3ccccc3C(F)(F)F)c2)c2ccccc12 [Example 481] | < 10 µM |
| O=C(O)Cc1cn(Cc2cccc(Oc3cccc(C(F)(F)F)c3)c2)c2ccccc12 [Example 482] | < 10 µM |
| O=C(O)Cc1cn(Cc2cccc(Oc3ccc(C(F)(F)F)cc3)c2)c2ccccc12 [Example 483] | < 10 µM |
| O=C(O)Cc1cn(Cc2cccc(Oc3ccc(F)c(F)c3)c2)c2ccccc12 [Example 484] | < 10 µM |
| O=C(O)Cc1cn(Cc2cccc(Oc3cc(F)cc(F)c3)c2)c2ccccc12 [Example 485] | 10 to 50 µM |
| O=C(O)Cc1cn(Cc2cccc(Oc3cc(Cl)cc(Cl)c3)c2)c2ccccc12 [Example 487] | < 10 µM |
| COc1cccc(Oc2cccc(Cn3cc(CC(=O)O)c4ccccc43)c2)c1OC [Example 488] | < 10 µM |
| COc1ccc(Oc2cccc(Cn3cc(CC(=O)O)c4ccccc43)c2)cc1OC [Example 491] | 10 to 50 µM |
| O=C(O)Cc1cn(Cc2cccc(Oc3cc(C(F)(F)F)cc(C(F)(F)F)c3)c2)c2ccccc12 [Example 492] | < 10 µM |
| O=C(O)Cc1cn(Cc2ccc(Oc3cc(C(F)(F)F)cc(C(F)(F)F)c3)cc2)c2ccccc12 [Example 512] | < 10 µM |
| CCOC(=O)Cc1cn(Cc2ccc(Oc3cc(Cl)cc(Cl)c3)cc2)c2ccccc12 [Example 515] | < 10 µM |

| SMILES | IC50 |
| --- | --- |
| CCOC(=O)Cc1cn(Cc2ccc(Oc3ccc(C(F)(F)F)cc3)cc2)c2ccccc12 [Example 516] | 10 to 50 µM |
| CCOC(=O)Cc1cn(Cc2ccc(Oc3cc(C(F)(F)F)cc(C(F)(F)F)c3)cc2)c2ccccc12 [Example 517] | 10 to 50 µM |
| CN(c1cccc(Cn2cc(CC(=O)O)c3ccccc32)c1)c1ccccc1F [Example 520] | < 10 µM |
| CN(c1cccc(F)c1)c1cccc(Cn2cc(CC(=O)O)c3ccccc32)c1 [Example 521] | < 10 µM |
| COc1ccccc1N(C)c1cccc(Cn2cc(CC(=O)O)c3ccccc32)c1 [Example 526] | 10 to 50 µM |
| CN(c1cccc(Cn2cc(CC(=O)O)c3ccccc32)c1)c1ccccc1C(F)(F)F [Example 529] | < 10 µM |
| CN(c1cccc(Cn2cc(CC(=O)O)c3ccccc32)c1)c1cccc(C(F)(F)F)c1 [Example 530] | < 10 µM |
| CN(c1ccc(C(F)(F)F)cc1)c1cccc(Cn2cc(CC(=O)O)c3ccccc32)c1 [Example 531] | < 10 µM |
| CN(c1cccc(Cn2cc(CC(=O)O)c3ccccc32)c1)c1cccc(F)c1F [Example 533] | < 10 µM |
| CN(c1cccc(Cn2cc(CC(=O)O)c3ccccc32)c1)c1ccc(F)cc1F [Example 534] | 10 to 50 µM |
| CN(c1cccc(Cn2cc(CC(=O)O)c3ccccc32)c1)c1cc(F)ccc1F [Example 535] | 10 to 50 µM |
| CN(c1cccc(Cn2cc(CC(=O)O)c3ccccc32)c1)c1c(F)cccc1F [Example 536] | 10 to 50 µM |
| CN(c1cccc(Cn2cc(CC(=O)O)c3ccccc32)c1)c1ccc(C(F)(F)F)cc1C(F)(F)F [Example 545] | 10 to 50 µM |
| CN(c1cccc(Cn2cc(CC(=O)O)c3ccccc32)c1)c1cc(C(F)(F)F)ccc1C(F)(F)F [Example 546] | < 10 µM |
| CN(c1cccc(Cn2cc(CC(=O)O)c3ccccc32)c1)c1cc(C(F)(F)F)cc(C(F)(F)F)c1 [Example 547] | < 10 µM |
| CCOC(=O)Cc1cn(Cc2cccc(N(C)c3cc(Cl)ccc3Cl)c2)c2ccccc12 [Example 548] | < 10 µM |
| CCOC(=O)Cc1cn(Cc2cccc(N(C)c3ccc(Cl)c(Cl)c3)c2)c2ccccc12 [Example 550] | > 50 µM |
